Laboratory results: US9028856B2, “Synergistic pesticide compositions” (priority 2008, dated 2015)

What was measured:
[1] = system: bait averse/resistant German cockroach (IHOP strain), Blattella germanica; assay: Knockdown/mortality of male cockroaches under continuous exposure on treated glazed tile; type: in vivo
Experimental: Treatments were allowed to dry overnight. […] Treatments were replicated a minimum of three times. Evaluations for cockroach knockdown/mortality were made at various intervals for 1 hour and at 24 hours after exposure.
Treatments were allowed to dry overnight. […] Evaluations for cockroach knockdown/mortality were made at various intervals and at 60 minutes after exposure.
(§1) Treatments were allowed to dry overnight. […] Treatments were replicated a minimum of three times.

[2] = system: susceptible/normal German cockroach (Monheim strain), Blattella germanica; assay: as above; type: in vivo; settings: glazed tile
In short: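 Male cockroaches continuously exposed on treated glazed tile, dried overnight before exposure; at least three replicates. Knockdown/mortality scored at intervals from 5 or 10 min, over runs lasting 20 min to 24 h depending on test.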

[3] = system: Red Imported Fire ant (RIFA), Solenopsis invicta; assay: Knockdown/mortality of ant workers under continuous exposure on treated glazed tile; type: in vivo
Excerpt: Treatments were allowed to dry overnight. […] Treatments were replicated minimum three times.
as §1

[4] = system: Argentine ant, Linepithema humile; assay: as above; settings: glazed tile
In short: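 0.5% AI imidacloprid in acetone, alone or with 0.1, 1.0 or 5.0% additive (benzenepropanoic acid, oleic acid, methyl oleate, methyl linoleate, methyl palmitate or BHA), 1 ml dried overnight on glazed tile (~161 cm^2). Ten workers confined under continuous exposure, water from 3 h; knockdown/mortality scored at intervals and 24 h; ≥3 replicates.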

[5] = system: Odorous House ant, Tapinoma sessile; assay: as above; type: in vivo; settings: glazed tile
In short: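 Each tile surface (about 5″×5″) was treated, left to dry overnight and tested in a minimum of three replicates.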

[6] = system: housefly, Musca domestica; assay: Housefly continuous exposure on treated glazed tile (paper cup arena); type: in vivo; settings: Table 58, housefly, glazed tile, continuous exposure
Excerpt: Treatments were allowed to dry overnight. The housefly testing arena consisted of a 16 oz. paper cup where the bottom of the cup was removed and replaced with a piece of standard window screen. Ten adult houseflies (mixed ratio) were placed in each cup and covered with a 4″×5″ index card to prevent escape. Houseflies were continuously exposed to the treatment by inverting the testing arena and sliding the cup from the index card to the treated tile surface. Treatments were replicated a minimum of three times.

[7] = system: Musca domestica, resistant strain Reichswald; assay: Efficacy of formulations on surfaces (glazed/unglazed tiles), house flies, continuous exposure; type: in vivo; settings: strain RW resistant, acetone solutions on glazed tiles, mean of three replicates
[8] = system: Musca domestica, resistant strain Reichswald; assay: as above; type: in vivo; settings: strain RW resistant, acetone solutions on glazed tiles, mean of three replicates; remark: listed apart in the source
Experimental: All surfaces were provided with talcum-coated glass rings (diameter 9.5 cm, height 5.5 cm) one day later.
The test insects were anesthetized with CO2, 20 individuals were placed onto the treated surfaces and the glass ring was covered with wire gauze ring. […]
Each test consisted of at least one replicate and any additional replicates are noted.
Test Insects: House flies (Musca domestica) of both sexes, susceptible strain WHO(N) and resistant strain Reichswald
Evaluation: Mortality was evaluated cumulatively at different times. […]
Test Insects: Culex quinquefasciatus (adults) (3 minutes exposure time according to USDA Petri Dish Method), Musca domestica (adults), susceptible and resistant strain, Blattella germanica (males), Cimex lectularius (adults) (all: continuous exposure time)
Application: The EC formulation (diluted with water 1:9) were applied as 0.85 ml solutions onto glazed tiles (15 cm×15 cm)

Aedes aegypti mosquito = assay: USDA Petri Dish Method, 3 min exposure to dipped fiberglass window screen; type: in vivo; settings: dipped screen, 3 min exposure
Experimental: MATERIALS AND METHODS: Aqueous solutions of 1% deltamethrin with and without an adjuvant composition, which is sold under the tradename Suspend® SC. […] Pre-cut fiberglass screen (5″×5″, or 161.3 cm^2) were dipped in each treatment solution and excessive solution was allowed to drain completely (see FIG. 23 a). Weight of the solution coated on the screen was then determined. The treated screen was then allowed to air-dry overnight. USDA Petri Dish Method was used as initial screening protocol (see FIG. 23 b). Twenty, 4-6 day old female Aedes aegypti were exposed to treated window screen for 3 minutes and then moved onto a clean untreated white paper index card. Treatments were replicated a minimum of three times. Mosquito knockdown was evaluated at 3 minute intervals for the first 15 minutes and then at 5 minute intervals for the remainder of an hour. A small cotton ball with sucrose solution was added on the screen top of the Petri dish as a drinking source. Mortality was evaluated at 24 hours after exposure.
MATERIALS AND METHODS: Several rates of permethrin without adjuvant were prepared using product sold under the tradename Permanone® 40 to determine an effective rate against Aedes aegypti mosquitoes. After determining an effective rate range, aqueous solutions of permethrin at 1.25, 1.0 and 0.05% AI were prepared with and without adjuvant. […] Pre-cut fiberglass screens (5″×5″ or 161.3 cm^2) were dipped in each treatment solution allowing excessive solution to drain completely. Weight of the solution coated on the screen was then determined. The treated screen was then allowed to air-dry overnight. USDA Petri Dish Method was used as initial screening protocol (see photo, right). Twenty, 4-6 day old female Aedes aegypti were exposed to treated window screen for 3 minutes and then moved to a clean untreated white paper index card. Treatments were replicated a minimum of three times. Mosquito knockdown was evaluated at 3 minute intervals for the first 15 minutes and then at 5 minute intervals for the remainder of an hour. A small cotton ball with sucrose solution was added on the screen top of the petri-dish as a drinking source. Mortality was evaluated at 24 hours after exposure.

[9] = Table 39, permethrin without adjuvant (Permanone 40)
[10] = Table 40, aqueous permethrin/adjuvant

Structure (SMILES): CC1(C)C(C=C(Cl)Cl)C1C(=O)OCc1cccc(Oc2ccccc2)c1 (centres unmarked) [permethrin, reference compound]
- toxicity / efficacy of the substance alone (summary in words) ([1]; German cockroach IHOP): very fast acting
- toxicity / efficacy of the substance alone (summary in words) ([2]; German cockroach Monheim): effective
- toxicity / efficacy of the substance alone (summary in words) ([3]; RIFA, glazed tile): active
- time at which near 100% mortality was achieved ([3]; permethrin 0.5% AI with or without adjuvant (FIG. 39)): about 13 minutes

Structure (SMILES): CC[S+]([O-])c1c(C#N)nn(-c2c(Cl)cc(C(F)(F)F)cc2Cl)c1N (centres unmarked) [Ethiprole (0.1%)]
- Average % Mortality after 30 min ([4]; Table 57, Argentine ant, continuous exposure, 30 min): 0%
- Average % Mortality after 45 min ([4]; Table 57, Argentine ant, continuous exposure, 45 min): 0%
- Average % Mortality after 60 min ([4]; Table 57, Argentine ant, continuous exposure, 60 min): 0%
- Average % Mortality after 15 min ([4]; Table 57, Argentine ant, continuous exposure, adjuvant = Compound A 1% + Compound B 0.5%): 0%
- Average % Knockdown & Mortality after 3 hr ([2]; Table 61, German cockroach (Monheim), continuous exposure, 3 hr): 27%
- Average % Knockdown & Mortality after 5 hr ([2]; Table 61, German cockroach (Monheim), continuous exposure, 5 hr): 33%
- Average % Knockdown & Mortality after 24 hr ([2]; Table 61, German cockroach (Monheim), continuous exposure, 24 hr): 80%
- Average % Knockdown & Mortality after 1 hr ([2]; Table 61, German cockroach (Monheim), continuous exposure, adjuvant = Compound A 1% + Compound B 0.5%, 1 hr): 0%
- Average % Knockdown & Mortality after 30 min ([5]; Table 59, Odorous House ant, continuous exposure, 30 min): 0%
- Average % Knockdown & Mortality after 45 min ([5]; Table 59, Odorous House ant, continuous exposure, 45 min): 0%
- Average % Knockdown & Mortality after 60 min ([5]; Table 59, Odorous House ant, continuous exposure, 60 min): 0%
- Average % Knockdown & Mortality after 2 hr ([5]; Table 59, Odorous House ant, continuous exposure, 2 hr): 0%
- Average % Knockdown & Mortality after 15 min ([5]; Table 59, Odorous House ant, continuous exposure, adjuvant = Compound A 1% + Compound B 0.5%, 15 min): 0%
- Average % Knockdown & Mortality after 3 hr ([6]; 3 hr): 0%
- Average % Knockdown & Mortality after 5 hr ([6]; 5 hr): 3%
- Average % Knockdown & Mortality after 7 hr ([6]; 7 hr): 10%
- Average % Knockdown & Mortality after 24 hr ([6]; 24 hr): 100%
- Average % Knockdown & Mortality after 1 hr ([6]; adjuvant = Compound A 1% + Compound B 0.5%, 1 hr): 0%
- Average % Mortality after 1 hr ([3]; Table 60, Red Imported Fire ant, glazed tile, continuous exposure, 1 hr): 0%
- Average % Mortality after 1.5 hr ([3]; Table 60, Red Imported Fire ant, glazed tile, continuous exposure, 1.5 hr): 0%
- Average % Mortality after 2 hr ([3]; Table 60, Red Imported Fire ant, glazed tile, continuous exposure, 2 hr): 0%
- Average % Mortality after 3 hr ([3]; Table 60, Red Imported Fire ant, glazed tile, continuous exposure, 3 hr): 10%
- Average % Mortality after 30 min ([3]; Table 60, Red Imported Fire ant, glazed tile, continuous exposure, adjuvant = Compound A 1% + Compound B 0.5%): 0%

Structure (SMILES): CC1(C)[C@H](C(=O)O[C@H](C#N)c2cccc(Oc3ccccc3)c2)[C@@H]1C=C(Br)Br [0.020% DTM]
- % Mortality after ([7]; 2 h): 0%
- % Mortality after ([7]; 24 h): 7%
- % Mortality after ([8]; 15′): 0%
- % Mortality after ([8]; 30′): 0%
- % Mortality after ([8]; 1 h): 0%
- % Mortality after ([8]; 3 h): 0%

Structure (SMILES): CC1(C)C(C=C(Cl)Cl)C1C(=O)OCc1cccc(Oc2ccccc2)c1 (centres unmarked) [Permethrin (0.5%)]
- Average % Mortality after 5 min ([4]; 5 min, Table 41, aqueous permethrin/adjuvant): 58%
- Average % Mortality after 10 min ([4]; 10 min, Table 41, aqueous permethrin/adjuvant): 100%
- Average % Mortality after 15 min ([4]; Table 41, aqueous permethrin/adjuvant): 100%
- Average % Mortality after 20 min ([4]; 20 min, Table 41, aqueous permethrin/adjuvant): 100%
- Average % Mortality after 10 min ([1]; 10 min, Table 42, aqueous permethrin/adjuvant, IHOP strain): 40%
- Average % Mortality after 20 min ([1]; 20 min, Table 42, aqueous permethrin/adjuvant, IHOP strain): 87%
- Average % Mortality after 40 min ([1]; 40 min, Table 42, aqueous permethrin/adjuvant, IHOP strain): 93%
- Average % Mortality after 60 min ([1]; 60 min, Table 42, aqueous permethrin/adjuvant, IHOP strain): 100%
- Average % Mortality after 10 min ([2]; 10 min, Table 45, aqueous permethrin/adjuvant, Monheim strain): 100%
- Average % Mortality after 20 min ([2]; 20 min, Table 45, aqueous permethrin/adjuvant, Monheim strain): 100%
- Average % Mortality after 30 min ([2]; 30 min, Table 45, aqueous permethrin/adjuvant, Monheim strain): 100%
- Average % Mortality after 4 hr ([2]; 4 hr, Table 45, aqueous permethrin/adjuvant, Monheim strain): 100%
- Average % Mortality after 10 min ([5]; 10 min, Table 43, aqueous permethrin/adjuvant): 13%
- Average % Mortality after 20 min ([5]; 20 min, Table 43, aqueous permethrin/adjuvant): 50%
- Average % Mortality after 30 min ([5]; 30 min, Table 43, aqueous permethrin/adjuvant): 93%
- Average % Mortality after 60 min ([5]; 60 min, Table 43, aqueous permethrin/adjuvant): 100%
- Average % Knockdown & Mortality after 3 min (Aedes aegypti mosquito; [9]): 0%
- Average % Knockdown & Mortality after 3 min (Aedes aegypti mosquito; [10]): 0%
- Average % Knockdown & Mortality after 9 min (Aedes aegypti mosquito; [9]): 0%
- Average % Knockdown & Mortality after 9 min (Aedes aegypti mosquito; [10]): 1%
- Average % Knockdown & Mortality after 15 min (Aedes aegypti mosquito; [9]): 0%
- Average % Knockdown & Mortality after 15 min (Aedes aegypti mosquito; [10]): 1%
- Average % Knockdown & Mortality after 30 min (Aedes aegypti mosquito; [9]): 0%
- Average % Knockdown & Mortality after 30 min (Aedes aegypti mosquito; [10]): 0%
- Average % Knockdown & Mortality after 60 min (Aedes aegypti mosquito; [9]): 0%
- Average % Knockdown & Mortality after 60 min (Aedes aegypti mosquito; [10]): 0%
- Average % Knockdown & Mortality after 24 hr (Aedes aegypti mosquito; [9]): 9%
- Average % Knockdown & Mortality after 24 hr (Aedes aegypti mosquito; [10]): 6%
- Average % Mortality after 5 min ([3]; 5 min, Table 44, aqueous permethrin/adjuvant, glazed tile): 43%
- Average % Mortality after 15 min ([3]; 15 min, Table 44, aqueous permethrin/adjuvant, glazed tile): 100%
- Average % Mortality after 30 min ([3]; Table 44, aqueous permethrin/adjuvant, glazed tile): 100%
- Average % Mortality after 60 min ([3]; 60 min, Table 44, aqueous permethrin/adjuvant, glazed tile): 100%
